Assay results reported in patent publication US6773727B1, “Use of gossypol and related terpenes for control of urban and agricultural pests” (The United States of America as represented by the …, priority 2001, dated 2004).
Like-named read-outs stand apart in the source and are kept apart here.

Legend:
[1] = system: tobacco budworm (Heliothis virescens [F.]) larvae; conditions: cited from earlier work; for effect on growth: at 2.5 μmoles/g diet; for effective dosage required to reduce by 50% the growth of larvae: larvae fed an artificial diet
[2] = system: tobacco budworm larval growth; conditions: in vivo; cited from earlier work
[3] = as recommended by manufacturers; pest not stated; cited from earlier work
roaches = conditions: as recommended by manufacturers; cited from earlier work
termites = assay: Termite lab colony bait matrix test (time to 100% mortality); assay type: in vivo, Formosan subterranean termite
Procedure: Gossypol acetic acid complex, which is a commercially available pure chemical, is dissolved in 1 ml acetone (#9006-03; J. T. Baker, Phillipsburg, NJ) using a sterile container. In the pure form as gossypol acetic acid complex and at concentrations of 5 ppm, gossypol is effective when mixed with a chitin synthesis inhibitor of the benzophenyl urea family or microbes such as fungi, bacteria, or viruses, taking a mean time to kill the lab test of four months. At concentrations greater than 500 ppm, without the addition of any other chemical, gossypol acetic acid complex as an insecticide can kill the lab test colony after a mean duration of one month.
Gossypol-acetic acid complex obtained from USDA-ARS-SRCC, New Orleans, La., crude cotton seed oil [8ETX(5)], from a commercial oil mill, and a commercial cotton meal [6MTN 925 CSM] were separately incorporated into a bait matrix as described in U.S. patent application Ser. No. 09/294,499 filed Apr. 20, 1999, at concentrations of 50, 25, and 12.5 ppm respectively. […] A total of 40 mg of the gossypol acetic acid complex, 250 mg of the crude cotton seed oil, and 900 mg of the cotton seed meal were individually weighed using a Mettler balance (model PB303; Fisher Scientific, Pittsburgh, Pa.). The gossypol-acetic acid complex was placed into a 50 ml sterile screw cap conical tube (#62.547.004; Sarstedt, Newton, N.C.) and dissolved with 1 ml acetone (#9006-03; J. T. Baker, Phillipsburg, N.J.).
Under a laminar flow hood, the gossypol acetone solution was mixed with 40 ml of sterile nutritional supplement containing 150 ppm of chitin inhibitors (prepared as reported by Rojas, M. G. and Morales-Ramos, J. A., Apr. 2001, “Bait matrix for delivery of chitin synthesis inhibitors to the Formosan subterranean termite [Isoptera: Rhinotermitidae],” J. Econ. Entomol. 94(2):506-510). The tube was tightly closed with a screw cap and manually shaken for 30 seconds. The mixture was added to 100 g of sterile cellulose as reported by Rojas and Morales-Ramos (2001) supra. The cotton seed oil was mixed with 300 ml of supplement and mixed with the sterile cellulose. The cotton seed meal was mixed and homogenized with the sterile cellulose, and then the 300 ml nutritional supplement was added. Each mixture was manually homogenized using a stainless steel spatula.
The mixtures were prepared as reported above for gossypol-chitin inhibitors, but without the addition of the chitin inhibitors. The fungal spores (400 mg) (Bio-Blast, EcoScience, Orlando, Fla.) were homogenized with the sterile cellulose, then the 300 ml of supplement gossypol-containing solution was added.
To encase the bait matrix, tubes made of fibrous casing material (#124B; L. E. M. Products, Inc., Miamitown, Ohio) were cut into 150 mm long portions as reported by Rojas and Morales-Ramos (2001) supra. Fifty grams of bait matrix containing a mixture of a single gossypol source and a single chitin synthesis inhibitor, or single gossypol source and fungal spores, were compacted into one end of the inlet tube, at which point the open end of the inlet tube was closed with a rubber band. The bait casing was placed inside of the foraging box adjacent to a 10 g piece of pine wood, taking care that they were partially covered with the sand. […]
All the experimental boxes were maintained under dark at 29±2° C., and 75±2% relative humidity. […] The time to reach 100% mortality was measured and recorded. […]

protease = conditions: cotton leafworm (S. littoralis); cited from earlier work
[4] = system: silverleaf whitefly (Bemisia argentifolii Bellows and Perring); conditions: in vivo; cited from earlier work
bollworms = conditions: 0.15% gossypol in an artificial diet; regular diet 54.5%; cited from earlier work
[5] = system: tobacco budworm neonate larvae; conditions: nine days, cited from earlier work
tobacco budworms = conditions: cited from earlier work
invertase = conditions: cotton leafworm (S. littoralis); cited from earlier work
[6] = system: cotton leafworm (Spodoptera littoralis [Boisduval]); conditions: cited from earlier work
[7] = system: Spiny bollworm (Earias insulana Boisduval); conditions: cited from earlier work
amylase = conditions: cotton leafworm (S. littoralis); cited from earlier work
subterranean termites = conditions: as recommended by manufacturers; cited from earlier work
ants = conditions: as recommended by manufacturers; cited from earlier work

For `COc1c(O)c(C=O)c2c(c1C(C)C)C(=O)C(C)=CC2=O` [Hemigossypolone-6-methyl ether], the effect on growth [1] is listed as “no effect on growth”.

For `C=C1CC[C@H]2O[C@]2(C)CC[C@@H]2[C@@H]1CC2(C)C` [caryophyllene oxide], the “interaction with gossypol in retarding larval growth” value [2] is given as “interacts synergistically”.

In the case of `O=C(NC(=O)c1c(F)cccc1F)Nc1cc(Cl)c(Oc2ncc(C(F)(F)F)cc2Cl)c(Cl)c1` [chlorfuazuron], the lethal amount [3] is listed as “about 0.5%”.

In the case of `O=C(NC(=O)c1c(F)cccc1F)Nc1ccc(Cl)cc1` [diflubenzuron], the lethal amount [3] is listed as “about 0.250%”.

For `N#Cc1nn(-c2c(Cl)cc(C(F)(F)F)cc2Cl)c(N)c1[S+]([O-])C(F)(F)F` (stereo not drawn) [fipronil], the lethal amount (roaches) is given as “about 0.05%”.

In the case of `CC(=O)O.Cc1cc2c(C(C)C)c(O)c(O)c(C=O)c2c(O)c1-c1c(C)cc2c(C(C)C)c(O)c(O)c(C=O)c2c1O` [gossypol acetic acid complex, Gossypol acetic acid complex], the “mean time to kill the lab test” value (termites; 5 ppm, mixed with a chitin synthesis inhibitor of the benzophenyl urea family or microbes) is reported as “four”, the “time to mortality of a 1000-worker colony” value (termites; 500 ppm, not mixed with any other chemicals, fungi, or bacteria) is reported as “about 2.5 weeks” and the “mean duration to kill the lab test colony” value (termites; concentrations greater than 500 ppm, without any other chemical) is reported as “one”. For the same compound, the “dose sufficient to weaken the termites and allow other chemicals or microorganisms to induce mortality” value (termites; preliminary results, doses from 5 to 500 ppm, mortality in about two months, no signs of repellency) was 100 ppm.

In the case of `Cc1cc2c(C(C)C)c(O)c(O)c(C=O)c2c(O)c1-c1c(C)cc2c(C(C)C)c(O)c(O)c(C=O)c2c1O` [gossypol], the protease activity (protease) is given as “inhibits”, the honeydew production [4] is given as “did not affect” and the mortality [4] is given as “did not affect”. The food utilization (bollworms) was 42.5%, the “larval size relative to control” value ([5]; 0.02% gossypol in artificial diet) was 98% and the “larval weight relative to controls” value ([5]; 0.06% gossypol in the diet) was 63%. For the same compound, the “larval weight relative to controls” value ([5]; 0.2% gossypol in the diet) was 13%, the food consumption (tobacco budworms; gossypol 0.30%, 5- and 8-day-old larvae) was “impaired” and the food utilization (tobacco budworms; gossypol at the 0.15% level) was “did not measurably affect food utilization”. The invertase activity (invertase) was “does not affect”, the “time until experimental colonies were dead” value (termites; gossypol with the chitin inhibitor in bait matrix, control boxes (no gossypol) still alive) was “about two” and the mortality ([6]; 0.5% gossypol in the diet, after 10 days) was ~70%. The larvae eventually pupated ([6]; 0.5% gossypol in the diet) was 0.3%, the feeding ([6]; 1.0% gossypol in the diet) was “strongly suppressed feeding” and the pupated ([7]; bolls containing 0.58% gossypol) was 45%. The pupated ([7]; bolls containing 2.34% gossypol) was 9%, the “effective dosage required to reduce by 50% the growth of larvae” value [1] was 0.8 μmoles/g diet and the amylase activity (amylase) was “inhibits”.

For `COc1c(O)c(C=O)c2c(c1C(C)C)C(=O)C1(C)CC=C(C)C(CC=C(C)C)C1C2=O` (stereo not drawn) [heliocide B1], the “effective dosage required to reduce by 50% the growth of larvae” value [1] is listed as 4.6 μmoles/g diet.

For `COc1c(O)c(C=O)c2c(c1C(C)C)C(=O)C1(C)CC=C(CCC=C(C)C)CC1C2=O` (stereo not drawn) [heliocide B2], the effect on growth [1] is given as “no effect on growth”.

In the case of `COc1c(O)c(C=O)c2c(c1C(C)C)C(=O)C1(C)CC(CCC=C(C)C)=CCC1C2=O` (stereo not drawn) [heliocide B3], the effect on growth [1] is given as “no effect on growth”.

For `CC(C)=CCC1C(C)=CCC2(C)C(=O)c3c(c(C=O)c(O)c(O)c3C(C)C)C(=O)C12` (stereo not drawn) [heliocide H1], the “effective dosage required to reduce by 50% the growth of larvae” value [1] is listed as 2.5 μmoles/g diet.

In the case of `CC(C)=CCCC1=CC[C@]2(C)C(=O)c3c(c(C=O)c(O)c(O)c3C(C)C)C(=O)[C@@H]2C1` [heliocide H2], the “effective dosage required to reduce by 50% the growth of larvae” value [1] is listed as 11.2 μmoles/g diet.

For `CC(C)=CCCC1=CC[C@H]2C(=O)c3c(C=O)c(O)c(O)c(C(C)C)c3C(=O)[C@@]2(C)C1` [heliocide H3], the “effective dosage required to reduce by 50% the growth of larvae” value [1] is listed as 3.9 μmoles/g diet.

For `CC1=CC(=O)c2c(C=O)c(O)c(O)c(C(C)C)c2C1=O` [hemigossypolone], the “effective dosage required to reduce by 50% the growth of larvae” value [1] is listed as 10.5 μmoles/g diet.

For `O=C(NC(=O)c1c(F)cccc1F)Nc1cc(Cl)c(OC(F)(F)C(F)F)c(Cl)c1` [hexaflumuron], the lethal amount [3] is listed as “about 0.5%”.

In the case of `CC1(C)CNC(=NN=C(/C=C/c2ccc(C(F)(F)F)cc2)/C=C/c2ccc(C(F)(F)F)cc2)NC1` [hydramethylnon], the lethal amount (subterranean termites) is listed as “about 0.030%” and the lethal amount (ants) is listed as “about 1.0%”.

For `O=[N+]([O-])NC1=NCCN1Cc1ccc(Cl)nc1` [imidacloprid], the lethal amount (roaches) is given as “about 2.15%”.

For caryophyllene, the “interaction with gossypol in retarding larval growth” value [2] is given as “does not act synergistically”.
